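Values below derive from 48-hour exposures of cells grown in 96-well plates, with endpoints linearly interpolated between the two concentrations bracketing the appropriate inhibition level. GI50 marks 50% less growth.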 Activity calls are given as the source filed them. Rule as the data show it: active = GI50 up to about 1.1 µM and inactive = higher.
Legend:
Test in all cases: inhibition of tumour cell growth, NCI panel, 48 h
A549 = test system: A549
DLD-1 = test system: DLD-1
HT-29 = test system: HT-29
LOX IMVI = test system: LOX IMVI
MOLT-4 = test system: MOLT-4
NCI-H522 = test system: NCI-H522
SK-MEL-2 = test system: SK-MEL-2
SN12C = test system: SN12C
SNB-75 = test system: SNB-75
SW-620 = test system: SW-620
U-251 = test system: U-251
XF498 = test system: XF498
DMS-114 = test system: DMS-114
HOP-18 = test system: HOP-18
RXF 393 = test system: RXF 393
Hs-578T = test system: Hs-578T
MDA-MB-231 = test system: MDA-MB-231
MDA-MB-435 = test system: MDA-MB-435
MDA-N = test system: MDA-N
PC-3 = test system: PC-3

Structure (SMILES) | GI50 (A549) | GI50 (DLD-1) | GI50 (HT-29) | GI50 (LOX IMVI) | GI50 (MOLT-4) | GI50 (NCI-H522) | GI50 (SK-MEL-2) | GI50 (SN12C) | GI50 (SNB-75) | GI50 (SW-620) | GI50 (U-251) | GI50 (XF498) | GI50 (DMS-114) | GI50 (HOP-18) | GI50 (RXF 393) | GI50 (Hs-578T) | GI50 (MDA-MB-231) | GI50 (MDA-MB-435) | GI50 (MDA-N) | GI50 (PC-3)
O=C(/C=C/c1ccccc1F)C(c1ccccc1)c1ccccc1 | 3.76 µM (inactive) | 3.24 µM (inactive) | 2.75 µM (inactive) | 1.71 µM (inactive) | 1.24 µM (inactive) | 2.62 µM (inactive) | 2.51 µM (inactive) | 4 µM (inactive) | 4.76 µM (inactive) | 3.83 µM (inactive) | 3.74 µM (inactive) | 1.99 µM (inactive) | – | – | – | – | – | – | – | –
Cc1c2[nH]c3ccc(Br)cc3c2c(C)c2nccc(O)c12 | 10.2 µM (inactive) | 27.9 µM (inactive) | 14.4 µM (inactive) | 15.5 µM (inactive) | 5.57 µM (inactive) | 12 µM (inactive) | 17.5 µM (inactive) | 13.2 µM (inactive) | 25.8 µM (inactive) | 11.7 µM (inactive) | – | 16.1 µM (inactive) | 17.7 µM (inactive) | 10.8 µM (inactive) | – | – | – | – | – | –
COc1ccccc1N1C(Cl)C(=O)C1c1c[nH]c2ccccc12 (stereo unspecified) | > 100 µM (inactive) | – | > 100 µM (inactive) | – | > 100 µM (inactive) | > 100 µM (inactive) | > 100 µM (inactive) | > 100 µM (inactive) | > 100 µM (inactive) | > 100 µM (inactive) | > 100 µM (inactive) | > 100 µM (inactive) | > 100 µM (inactive) | – | > 100 µM (inactive) | – | – | – | – | –
Cn1c(=O)nc2n(-c3ccc(Cl)cc3Cl)c3ccccc3nc-2c1=O | 1.62 µM (inactive) | 3.29 µM (inactive) | 2.53 µM (inactive) | – | 10.7 µM (inactive) | – | 2.87 µM (inactive) | – | – | – | 5.06 µM (inactive) | 0.262 µM (active) | 1.94 µM (inactive) | 11 µM (inactive) | 3.96 µM (inactive) | – | – | – | – | –
O=C1C(=O)c2cc([N+](=O)[O-])ccc2-c2ccc([N+](=O)[O-])cc21 | 2.52 µM (inactive) | 1.64 µM (inactive) | 7.46 µM (inactive) | 0.346 µM (active) | 0.288 µM (active) | 0.863 µM (active) | 2.02 µM (inactive) | 0.927 µM (active) | 2.14 µM (inactive) | 0.401 µM (active) | 0.773 µM (active) | 1.23 µM (inactive) | 0.375 µM (active) | 1.71 µM (inactive) | 0.191 µM (active) | – | – | – | – | –
O=C(c1ccccc1)[C@@H]1C[C@H](Sc2ccccc2)c2cc(Cl)ccc2N1 | 28.5 µM (inactive) | 23.4 µM (inactive) | 22.2 µM (inactive) | 23.5 µM (inactive) | 7.08 µM (inactive) | 22.1 µM (inactive) | 31.8 µM (inactive) | 15.7 µM (inactive) | 18.8 µM (inactive) | 22.5 µM (inactive) | 21.2 µM (inactive) | 18.9 µM (inactive) | 21.1 µM (inactive) | > 100 µM (inactive) | 6.64 µM (inactive) | – | – | – | – | –
O=C(/C=C/CC(O)(c1ccccc1)c1ccccc1)Nc1ccccc1Cl | – | > 100 µM (inactive) | > 100 µM (inactive) | – | > 100 µM (inactive) | > 100 µM (inactive) | > 100 µM (inactive) | > 100 µM (inactive) | 28.1 µM (inactive) | > 100 µM (inactive) | > 100 µM (inactive) | – | > 100 µM (inactive) | – | – | – | – | – | – | –
O=C(Nc1ccc([N+](=O)[O-])cc1[N+](=O)[O-])C(=O)C(C(=O)c1ccc2ccccc2c1)C1OC(=O)c2ccccc21 (stereo unspecified) | 25.5 µM (inactive) | 27.5 µM (inactive) | 16.7 µM (inactive) | 16.7 µM (inactive) | 2.95 µM (inactive) | 10.4 µM (inactive) | 22.3 µM (inactive) | 17.8 µM (inactive) | 14 µM (inactive) | 13.2 µM (inactive) | 4.33 µM (inactive) | – | 17.9 µM (inactive) | – | 12 µM (inactive) | – | – | – | – | –
CN(c1ccccc1)c1c(-c2ccccc2)c(=O)oc2c1ccc1occc12 | > 100 µM (inactive) | > 100 µM (inactive) | > 95.7 µM (inactive) | > 100 µM (inactive) | 22.2 µM (inactive) | > 100 µM (inactive) | > 100 µM (inactive) | > 100 µM (inactive) | > 100 µM (inactive) | > 100 µM (inactive) | > 100 µM (inactive) | – | > 100 µM (inactive) | > 100 µM (inactive) | > 92.3 µM (inactive) | – | – | – | – | –
CC(C)C1CN(C(=O)OCc2ccccc2)C2N1C(=O)C2(C)OCc1ccccc1 (stereo unspecified) | 29.2 µM (inactive) | 36 µM (inactive) | 42.2 µM (inactive) | 27.2 µM (inactive) | 24.4 µM (inactive) | – | 28.2 µM (inactive) | 48.6 µM (inactive) | 16.7 µM (inactive) | 40.9 µM (inactive) | 41.7 µM (inactive) | 11.7 µM (inactive) | 31.3 µM (inactive) | – | 21.4 µM (inactive) | – | – | – | – | –
CCCNC(C#N)c1ccc(OCCCCCCCCCCOc2ccc(C(C#N)NCCC)cc2)cc1 (stereo unspecified) | 47 µM (inactive) | – | 51.1 µM (inactive) | 14.8 µM (inactive) | 17.1 µM (inactive) | 72.6 µM (inactive) | 38.5 µM (inactive) | 68.9 µM (inactive) | 32.8 µM (inactive) | 41.3 µM (inactive) | 20.9 µM (inactive) | – | – | – | 23.9 µM (inactive) | 37.7 µM (inactive) | > 100 µM (inactive) | 46.3 µM (inactive) | 29.4 µM (inactive) | 30.8 µM (inactive)
C=C(CCCO)[C@@H]1CC[C@@](C)(O)[C@H]1C | > 100 µM (inactive) | > 10 µM (inactive) | > 100 µM (inactive) | – | > 100 µM (inactive) | > 100 µM (inactive) | > 100 µM (inactive) | > 100 µM (inactive) | 33.1 µM (inactive) | > 100 µM (inactive) | > 100 µM (inactive) | > 100 µM (inactive) | > 100 µM (inactive) | > 100 µM (inactive) | > 100 µM (inactive) | – | – | – | – | –
COc1cc2c(cc1Oc1c(Oc3c(O)c(OC)cc4c3C(CC(C)C)N(C)CC4)c(OC)cc3c1C(CC(C)C)N(C)CC3)C(CC(C)C)N(C)CC2 (stereo unspecified) | 0.429 µM (active) | 1.76 µM (inactive) | 0.547 µM (active) | 0.931 µM (active) | 1.03 µM (active) | 0.458 µM (active) | 0.867 µM (active) | 0.577 µM (active) | 0.611 µM (active) | 0.879 µM (active) | 0.492 µM (active) | – | 0.838 µM (active) | 1.67 µM (inactive) | 0.495 µM (active) | – | – | – | – | –
COc1cc2c(c(OC)c1OC)-c1[nH]ncc1CC2 | > 100 µM (inactive) | > 100 µM (inactive) | > 100 µM (inactive) | > 100 µM (inactive) | > 100 µM (inactive) | – | > 100 µM (inactive) | > 100 µM (inactive) | > 100 µM (inactive) | > 100 µM (inactive) | > 100 µM (inactive) | > 100 µM (inactive) | > 100 µM (inactive) | > 100 µM (inactive) | – | – | – | – | – | –
CC1(C)CC(=O)C2=C(C1)NC1=C(C(=O)CC(C)(C)C1)C2c1ccc([N+](=O)[O-])cc1 | > 100 µM (inactive) | – | > 100 µM (inactive) | > 100 µM (inactive) | > 100 µM (inactive) | > 100 µM (inactive) | > 100 µM (inactive) | > 100 µM (inactive) | 16.7 µM (inactive) | > 100 µM (inactive) | > 100 µM (inactive) | – | – | – | > 100 µM (inactive) | > 100 µM (inactive) | > 100 µM (inactive) | > 100 µM (inactive) | > 100 µM (inactive) | > 100 µM (inactive)
C=C1CC(OC)(C(O)C(=O)N[C@H]2OCO[C@H]3C2O[C@H](C[C@@H](CO)OC)C(C)(C)C3OC)O[C@H](C)[C@@H]1C (stereo partly specified) | < 0.00931 µM (active) | < 0.00931 µM (active) | < 0.00931 µM (active) | < 0.00931 µM (active) | 0.931 µM (active) | – | 0.0931 µM (active) | < 0.00931 µM (active) | < 0.00931 µM (active) | < 0.00931 µM (active) | < 0.00931 µM (active) | < 0.00931 µM (active) | < 0.00931 µM (active) | < 0.00931 µM (active) | < 0.00931 µM (active) | – | – | – | – | –
O=C1O/C(=C(/c2ccc(Cl)cc2)c2nc3ccccc3[nH]2)C(O)=C1c1ccc(Cl)cc1 | 2.4 µM (inactive) | 3.05 µM (inactive) | 2.7 µM (inactive) | 2.44 µM (inactive) | 1.95 µM (inactive) | 0.944 µM (active) | – | 2.72 µM (inactive) | 2.69 µM (inactive) | 3.48 µM (inactive) | 2.56 µM (inactive) | – | 1.24 µM (inactive) | 2.09 µM (inactive) | 2.26 µM (inactive) | – | – | – | – | –
C/C(CC(=O)NCCc1ccccc1)=N\NS(=O)(=O)c1ccc(C)cc1 | > 100 µM (inactive) | > 100 µM (inactive) | > 100 µM (inactive) | > 100 µM (inactive) | > 100 µM (inactive) | > 100 µM (inactive) | > 100 µM (inactive) | – | > 100 µM (inactive) | > 100 µM (inactive) | > 100 µM (inactive) | > 100 µM (inactive) | > 100 µM (inactive) | – | > 100 µM (inactive) | – | – | – | – | –
Cc1ccc(S(=O)(=O)NNC2Oc3cc4c(cc3C(c3ccccc3O)C2C)OCO4)cc1 (stereo unspecified) | 8.36 µM (inactive) | – | 14.3 µM (inactive) | 15.2 µM (inactive) | 10.4 µM (inactive) | 12.4 µM (inactive) | 9.62 µM (inactive) | 15.3 µM (inactive) | 10.9 µM (inactive) | 13.7 µM (inactive) | 10.3 µM (inactive) | – | – | – | 4.22 µM (inactive) | 10.9 µM (inactive) | 16 µM (inactive) | 13 µM (inactive) | 12.3 µM (inactive) | 10.1 µM (inactive)

— ChEMBL document CHEMBL1201862, “PubChem BioAssay data set” (2004)
